Measurements published in patent EP4778531A1, “MUSCLE RELAXANT ANTAGONIST FOR REVERSAL FOR BENZYLISOQUINOLINE MUSCLE RELAXANT” (priority 2023, dated 2025).

Tests used:
[1] = test system: cisatracurium-induced guinea pig muscle relaxation model; experiment: Antagonism of residual muscle relaxation after cisatracurium in anesthetized guinea pigs (TOF monitoring); type: in vivo, Hartley guinea pigs; conditions: for Residual Muscle Relaxation Recovery Time tTOF0-50: spontaneous recovery before administration; for Degree of tTOF50-90 shortening: vs negative control group
Description: Ninety (90) qualified Hartley guinea pigs, male, were used. Sixty (60) animals were randomly divided into 6 experimental groups based on body weight using a stratified random method: negative control group, positive control group, low-dose test group, medium-dose test group, high-dose test group, and combination group, with 10 animals per group (n=10). The remaining animals served as spares. The negative control group received 0.9% sodium chloride. The positive control group received 0.0625 mg/kg neostigmine methylsulfate (referred to as neostigmine). The low-dose test group received 10 mg/kg adamgammadex sodium. The medium-dose test group received 20 mg/kg adamgammadex sodium. The high-dose test group received 40 mg/kg adamgammadex sodium. The combination group received 10 mg/kg adamgammadex sodium and 0.03125 mg/kg neostigmine. The administration volume for all groups was 1 mL/kg.
Adaptive feeding was conducted after the quarantine period. On the day of the experiment, guinea pigs were weighed, administered atropine (0.1 mg/kg) intramuscularly, and then anesthetized with an intraperitoneal injection of anesthetic (pentobarbital sodium 10 mg/kg, urethane 1000 mg/kg). After fixation, the animals were intubated and connected to a small animal ventilator. Both external jugular veins and the right carotid artery were cannulated. The left jugular vein was used for cisatracurium infusion, the right jugular vein for injection of different test substances, and the carotid artery was connected to a multi-channel physiological signal acquisition and processing system for continuous monitoring of arterial blood pressure and heart rate. Electrode patches were subcutaneously placed behind the left femur and tibia of the guinea pig, and two stimulating electrodes of the neuromuscular monitor were fixed to the two electrode patches. The left hind paw was fixed on a custom-made platform. A sensor was fixed to the skin surface over the gastrocnemius muscle of the left hind limb, and a skin temperature probe was fixed to a flat area of skin. Continuous single-twitch stimulation was applied at 1 Hz. After the twitch height stabilized, the mode was switched to train-of-four stimulation (TOF mode, stimulus current 5 mA, frequency 2 Hz, pulse width 0.2 ms, interval between trains 15 s) for at least 5 min. Calibration was then performed using Calibration Mode 2, followed by TOF mode stimulation. After obtaining a stable stimulation response for at least 2 min, cisatracurium solution was infused intravenously using a dual-channel micro-infusion pump, and the start time of infusion was recorded. […] At this point, cisatracurium infusion was stopped. After stopping the infusion, neuromuscular function was allowed to recover spontaneously. When neuromuscular function reached moderate recovery, the test drug formulation was administered intravenously. Neuromuscular function was allowed to recover completely, and the administration time was recorded (Figure 1). Using the time of spontaneous recovery to moderate neuromuscular function (TOF50) as zero point, the times for recovery from TOF50 to TOF75, TOF75 to TOF90, and TOF50 to TOF90 were calculated for each animal (Table 1-2). Arterial blood pressure (systolic, diastolic, mean arterial pressure) and heart rate were recorded before cisatracurium infusion, at the time cisatracurium infusion was stopped, at the time of moderate neuromuscular recovery, and at the time of complete neuromuscular function recovery (Tables 3-7). Data were expressed as Mean ± SD. Statistical T-tests were performed using SPSS software to evaluate differences in blood pressure, heart rate, and residual neuromuscular blockade recovery times. P < 0.05 was considered statistically significant.

[2] = test system: Inflammation-Related Factors; type: in vivo, ICR mice; conditions: Adamgammadex sodium 1 g/kg, Sugammadex sodium 1 mg/kg, Neostigmine 0.3 mg/kg; for impact on inducing immune inflammation in mice (in words): conclusion from Tables 3 and 4; for Fluorescence Intensity M-CSF (Macrophage lysis-stimulating factor): second M-CSF line of Table 4
Description: An antibody array is a type of protein chip characterized by miniaturization, integration, and high throughput. It can be used to detect the expression abundance of proteins related to a specific physiological or pathological process. The principle involves arranging capture antibodies on a membrane or glass slide, incubating with the sample, adding biotin-labeled antibodies against the target proteins, and finally using HRP-streptavidin or fluorescein-streptavidin to detect the chip signal. Signals are detected using chemiluminescence or HiLyte™ Fluor 555-streptavidin.
In this experiment, ICR mice were randomly divided into a blank group, Adamgammadex sodium (1 g/kg) group, Sugammadex sodium (1 mg/kg) group, and Neostigmine (0.3 mg/kg) group, with 2 mice per group. Mice in each group given the corresponding dosage of compound via the tail vein once daily for 5 consecutive days. On the last day after administration, plasma from the 2 animals per group was mixed and detected using the Ary028 immune chip kit. Specific detection steps were as follows: • (1) Sample volume determination: 200 µL serum sample per Array unit. (2) Blocking protein chip: Each membrane was blocked with 2 mL of corresponding Array Buffer, incubated on a shaker for 1 hour. (3) Sample processing: Samples were diluted with corresponding Array Buffer to a volume of 1.5 mL per membrane, the corresponding Array unit was added, and incubated overnight with the Array protein membrane at 4°C. (4) Membranes were washed three times with corresponding Wash buffer, then diluted detection antibody was added and incubated at room temperature for 1 h. (5) Membranes were washed three times with corresponding Wash buffer, streptavidin-HRP was added and incubated for 30min at room temperature with shaking. (6) Membranes were washed three times with corresponding Wash buffer, 1 mL of chemiluminescent reagent was added to each well, and developed on a chemiluminescence imager. (7) Fluorescence intensity was used to represent the relative concentration of the corresponding protein.

[3] = high-dose test group, 40 mg/kg i.v.
[4] = low-dose test group, 10 mg/kg i.v.
[5] = medium-dose test group, 20 mg/kg i.v.
[6] = ICR mice, tail vein once daily for 5 days, pooled plasma of 2 mice, N.D. = below minimum detection limit
[7] = positive control group, 0.0625 mg/kg i.v.

## Adamgammadex sodium [Compound 1]
[1]; [3]
  Residual Muscle Relaxation Recovery Time Ratios RtTOF50-75/0-50: 0.10±0.11
  Residual Muscle Relaxation Recovery Time Ratios RtTOF50-90/0-50: 0.16±0.11
  Residual Muscle Relaxation Recovery Time Ratios RtTOF75-90/0-50: 0.06±0.06
  Residual Muscle Relaxation Recovery Time tTOF50-75: 131 ± 144 s
  Residual Muscle Relaxation Recovery Time tTOF50-90: 201 ± 131 s
  Residual Muscle Relaxation Recovery Time tTOF75-90: 71 ± 52 s
  Residual Muscle Relaxation Recovery Time tTOF0-50: 1413 ± 693 s
  Degree of tTOF50-90 shortening: 55.8%
[1]; [4]
  Residual Muscle Relaxation Recovery Time Ratios RtTOF50-75/0-50: 0.14±0.10
  Residual Muscle Relaxation Recovery Time Ratios RtTOF50-90/0-50: 0.23±0.13
  Residual Muscle Relaxation Recovery Time Ratios RtTOF75-90/0-50: 0.09±0.05
  Residual Muscle Relaxation Recovery Time tTOF50-75: 143 ± 85 s
  Residual Muscle Relaxation Recovery Time tTOF50-90: 248 ± 139 s
  Residual Muscle Relaxation Recovery Time tTOF75-90: 105 ± 78 s
  Residual Muscle Relaxation Recovery Time tTOF0-50: 1093 ± 427 s
  Degree of tTOF50-90 shortening: 45.5%
[1]; [5]
  Residual Muscle Relaxation Recovery Time Ratios RtTOF50-75/0-50: 0.12±0.05
  Residual Muscle Relaxation Recovery Time Ratios RtTOF50-90/0-50: 0.22±0.08
  Residual Muscle Relaxation Recovery Time Ratios RtTOF75-90/0-50: 0.09±0.07
  Residual Muscle Relaxation Recovery Time tTOF50-75: 159 ± 72 s
  Residual Muscle Relaxation Recovery Time tTOF50-90: 279 ± 123 s
  Residual Muscle Relaxation Recovery Time tTOF75-90: 120 ± 99 s
  Residual Muscle Relaxation Recovery Time tTOF0-50: 1349 ± 381 s
  Degree of tTOF50-90 shortening: 38.7%
[2]; [6]
  Fluorescence Intensity BAFF/BlyS/ TNFSF13B (B cell activation factor): 6659.29
  Fluorescence Intensity C-Reactive Protein/CRP (C-reactive protein): 5549.81
  Fluorescence Intensity CCL21/6Ckine (Lymphocyte chemokine CCL21): 8082.61
  Fluorescence Intensity CCL22/MDC (Macrophage-derived chemokine): 738.38
  Fluorescence Intensity Chemerin (Chemotactic factor): 2680.26
  Fluorescence Intensity IL-7 (Interleukin-7): 1850.57
  Fluorescence Intensity IL-28 (Interleukin-28): 244.77
  Fluorescence Intensity M-CSF (Macrophage colony-stimulating factor): 871.82
  Fluorescence Intensity Myeloperoxidase (Mastoperoxidase): 1927.54
  Fluorescence Intensity M-CSF (Macrophage lysis-stimulating factor): 871.82
[2]
  impact on inducing immune inflammation in mice (in words): smallest impact

## CN(C)C(=O)Oc1cccc([N+](C)(C)C)c1 [Neostigmine, neostigmine methylsulfate]
[1]; [7]
  Residual Muscle Relaxation Recovery Time Ratios RtTOF50-75/0-50: 0.09±0.07
  Residual Muscle Relaxation Recovery Time Ratios RtTOF50-90/0-50: 0.18±0.09
  Residual Muscle Relaxation Recovery Time Ratios RtTOF75-90/0-50: 0.09±0.07
  Residual Muscle Relaxation Recovery Time tTOF50-75: 101 ± 71 s
  Residual Muscle Relaxation Recovery Time tTOF50-90: 188 ± 86 s
  Residual Muscle Relaxation Recovery Time tTOF75-90: 87 ± 68 s
  Residual Muscle Relaxation Recovery Time tTOF0-50: 1134 ± 281 s
  Degree of tTOF50-90 shortening: 58.7%
[2]; [6]
  Fluorescence Intensity BAFF/BlyS/ TNFSF13B (B cell activation factor): 12170.94
  Fluorescence Intensity C-Reactive Protein/CRP (C-reactive protein): 11999.12
  Fluorescence Intensity CCL17/TARC (Thymus activation regulatory chemokine): 3653.32
  Fluorescence Intensity CCL19/MIP 3β (Macrophage inflammatory protein 3β): 3385.33
  Fluorescence Intensity CCL20/MIP 3α (Macrophage inflammatory protein 3α): 4440.55
  Fluorescence Intensity CCL21/6Ckine (Lymphocyte chemokine CCL21): 17119.34
  Fluorescence Intensity CCL22/MDC (Macrophage-derived chemokine): 4762.19
  Fluorescence Intensity CD160 (Leukocyte differentiation antigen160): 4298.1
  Fluorescence Intensity CX3CL1/ Gractalkine (Neural chemokine): 2935.07
  Fluorescence Intensity CXCL1/KC (Neutrophil chemokine): 2935.82
  Fluorescence Intensity CXCL9/MIG (IFN-γ-induced monocyte factor): 1730.04
  Fluorescence Intensity CXCL10/IP-10 (Interferon-induced protein 10): 1971.99
  Fluorescence Intensity CXCL11/I-TAC (Interferon-induced T cell chemokines): 2397.51
  Fluorescence Intensity CXCL13 (CXC family chemokine): 3607.1
  Fluorescence Intensity CXCL16 (CXC family chemokine): 2426.598
  Fluorescence Intensity Chemerin (Chemotactic factor): 7955.57
  Fluorescence Intensity G-CSF (Granulocyte colony-stimulating factor): 1289.56
  Fluorescence Intensity IL-2 (Interleukin-2): 1107.85
  Fluorescence Intensity IL-7 (Interleukin-7): 3226.41
  Fluorescence Intensity IL-10 (Interleukin-10): 1601.99
  Fluorescence Intensity IL-11 (Interleukin-11): 2195.99
  Fluorescence Intensity IL-12p40 (Interleukin IL-12p40): 2936.85
  Fluorescence Intensity IL-13 (Interleukin-13): 1609.58
  Fluorescence Intensity IL-15 (Interleukin-15): 1503.8
  Fluorescence Intensity IL-17A (Interleukin -17A): 783.45
  Fluorescence Intensity IL-22 (Interleukin-22): 1253.05
  Fluorescence Intensity IL-23 (Interleukin-23): 1483.72
  Fluorescence Intensity IL-27p28 (Interleukin-27p28): 1575.98
  Fluorescence Intensity IL-28 (Interleukin-28): 3505.78
  Fluorescence Intensity IL-33 (Interleukin-33): 1897.86
  Fluorescence Intensity M-CSF (Macrophage colony-stimulating factor): 6478.33
  Fluorescence Intensity Myeloperoxidase (Mastoperoxidase): 6395.44
  Fluorescence Intensity Pentraxin 3 (Pertussis toxin 3): 3694.57
  Fluorescence Intensity TIM-1/KIM-1/ HAVCR (Hepatitis A virus receptor-1 (inflammation/ immunity)): 1197.17
  Fluorescence Intensity M-CSF (Macrophage lysis-stimulating factor): 6478.33
[2]
  impact on inducing immune inflammation in mice (in words): most severe impact
[2]; second Pentraxin 3 line of Table 4, ICR mice, tail vein once daily for 5 days, pooled plasma of 2 mice, N.D. = below minimum detection limit
  Fluorescence Intensity Pentraxin 3/TSG-14 (Pertussis toxin 3): 3694.57
